# Measurements from PMC11018795, “The regulatory relationship between NAMPT and PD-L1 in cancer and identification of a dual-targeting inhibitor” (EMBO Molecular Medicine, 2024).
# Where “and” joins values, the source holds several entries; their conditions need not be identical. Equal entries are not always repeated.
# Assays:
# PC9 cells = assay: MTT assay 48 h, PC9; type: cell-based, human
# Description: (§1) Cells (5 × 10^3/well) were seeded into a 96-well plate and cultured at 37 °C in a 5% CO2 incubator. […] At the final time point, 10 μl MTT solution (5 mg/ml, Sigma, Burlington, MA, USA) was added to each well and incubated for an additional 4 h at 37 °C in a 5% CO2 incubator. Then,100 μl of DMSO was added to each well and mixed thoroughly. Optical density was measured at 492 nm using a microplate reader (Molecular Devices, San Jose, CA, USA).
# LLC cells = assay: MTT assay 48 h, LLC; type: cell-based, mouse
# Description: as §1
# LLC Vector cells = assay: Cell viability 72 h, LLC Vector (Fig 4C); type: cell-based, mouse
# Description: as §1, with “In vitro cell viability was determined using a Cell Counting Kit-8 (MCE) assay. Cells (5 × 10^3/well) were seeded in 96-well culture plates. After 24 h, they were incubated with various concentrations of the test compounds for 48–72 h at 37 °C in a 5% CO2 incubator. Next, 10% of the CCK-8 solution was added to each well, and the plates were incubated for an additional 4 h at 37 °C. The optical density of each well was measured at 450 nm using a multimode plate reader (Molecular Devices, San Jose, CA, USA). Cells” for “Cells”
# A2780 cells = assay: Cell cycle analysis, A2780; type: cell-based, human
# Source text: Supplement 44321_2024_51_MOESM5_ESM.zip/Fig4-D.xlsx, sheet "Sheet1" | column: G0/G1; S; G2/M
# [1] = test system: LLC Vector cells co-cultured with T cells; assay: T cell-mediated tumor cell killing assay, LLC Vector; type: cell-based; conditions: Mus musculus, 100 nM, read-out: inhibition rate (T cell-mediated killing)
# Description: To acquire activated T cells, human peripheral blood mononuclear cells (PBMC; LTS1077, Yanjin Biological) were cultured in CTSTM AIIM VTM SFM (A3021002; Gibco) with ImmunoCult Human CD3/CD28/CD2 T-cell activator (25 µL/mL; […] Technologies, Cat#10970) for 48 h according to the manufacturer’s protocol. The experiments were performed using mouse anti-CD3 antibody (1 µg/mL; Thermo Scientific, 16-0032-82) and anti-CD28 antibody(5 µg/mL; Thermo Scientific, 16-0281-82). Cancer cells were allowed to adhere to the plates overnight and then incubated for 48 h with activated T cells in the presence or absence of DX ([…]). Different proportions of cancer cells and activated T cells were utilized according to the purpose of each experiment. The T-cell proliferation assay was 1:3; the T-cell killing assay was 1:10; T cells and cell debris were removed by PBS washing, and the living cancer cells were then quantified by a spectrometer at OD (570 nm) followed by crystal violet staining. page 12: Fig 3: […] expression patterns. […] Data was obtained from the TCGA database. (B) T cell-mediated tumor cell killing assay. T cells were co-cultured with LLC Vector, […] CQ-85, or BMS202. […] stained by crystal violet. The relative added value of activated T cells is shown below. Data are presented as mean ± SEM; *P < 0.05, **P < 0.01, ***P < 0.001, compared with control. n.s., not significant. […]
# [2] = test system: LLC cells co-cultured with T cells; assay: T cell killing assay (colony formation), LLC sh Vector; type: cell-based; conditions: Mus musculus, 72 h, 100 nM, three days, read-out: inhibition rate of colony formation number
# Description: To acquire activated T cells, human peripheral blood mononuclear cells (PBMC; LTS1077, Yanjin Biological) were cultured in CTSTM AIIM VTM SFM (A3021002; Gibco) with ImmunoCult Human CD3/CD28/CD2 T-cell activator (25 μL/mL; […] Technologies, Cat#10970) for 48 h according to the manufacturer's protocol. The experiments were performed using mouse anti-CD3 antibody (1 μg/mL; Thermo Scientific, 16-0032-82) and anti-CD28 antibody(5 μg/mL; Thermo Scientific, 16-0281-82). […] Different proportions of cancer cells and activated T cells were utilized according to the purpose of each experiment. The T-cell proliferation assay was 1:3; the T-cell killing assay was 1:10; T cells and cell debris were removed by PBS washing, and the living cancer cells were then quantified by a spectrometer at OD (570 nm) followed by crystal violet staining. page 28: Fig 8: Effects of LZFPN-90 and NMN on tumor immune microenvironment. […] (C) T cells were co-cultured with LLC cells, and treated with LZFPN-90 (100 nM), and NMN (1 mM) to detect the cell proliferation by T cell killing assay. Data are presented as mean ± SEM; *P < 0.05, **P < 0.01, ***P < 0.001 compared with control. n.s., not significant. (1 picture or pasted object on this page, not shown here)
# [3] = test system: A2780, HCT-116, LLC, CT-26 cells co-cultured with T cells; assay: T-cell-mediated tumor cell killing assay, A2780, HCT-116, LLC, CT-26; type: cell-based, human, mouse; conditions: 72 h co-culture
# Description: To acquire activated T cells, human peripheral blood mononuclear cells (PBMC; LTS1077, Yanjin Biological) were cultured in CTSTM AIIM VTM SFM (A3021002; Gibco) with ImmunoCult Human CD3/CD28/CD2 T-cell activator (25 µL/mL; […] Technologies, Cat#10970) for 48 h according to the manufacturer’s protocol. The experiments were performed using mouse anti-CD3 antibody (1 µg/mL; Thermo Scientific, 16-0032-82) and anti-CD28 antibody(5 µg/mL; Thermo Scientific, 16-0281-82). […] Different proportions of cancer cells and activated T cells were utilized according to the purpose of each experiment. The T-cell proliferation assay was 1:3; the T-cell killing assay was 1:10; T cells and cell debris were removed by PBS washing, and the living cancer cells were then quantified by a spectrometer at OD (570 nm) followed by crystal violet staining.
smiles,measurement,setting,value
CCN(CC)CCCOc1cccc(-c2cccc3c2CCN3C(=O)c2ncc(CNC(=NC#N)Nc3ccncc3)s2)c1 [LZFPN-90],Relative inhibition (敏感性),PC9 cells,0.29
same,Relative inhibition (敏感性),LLC cells; LLC,0.15
same,effect on relative viability of LLC cells,"LLC cells; MTT, 64 nM",basically had no effect
same,Relative viability,"LLC Vector cells; LZ90 0.25 (nM), 0 = 100",89.7901 and 87.9705 and 96.555
same,Relative viability,LLC Vector cells; LZ90 1,87.3413 and 95.1235 and 101.277
same,Relative viability,LLC Vector cells; LZ90 4,85.618 and 92.9893 and 92.8571
same,Relative viability,LLC Vector cells; LZ90 16,83.9984 and 83.5338 and 75.7769
same,Relative viability,LLC Vector cells; LZ90 64,79.4506 and 87.9576 and 68.4293
same,Relative viability,LLC Vector cells; LZ90 256,70.355 and 68.0766 and 71.9586
same,Cell cycle G0/G1,A2780 cells; LZ90 20,36.54 and 37.05 and 37.41
same,Cell cycle G2/M,A2780 cells; LZ90 20,35.48 and 38.97 and 35.02
same,Cell cycle S,A2780 cells; LZ90 20,24.02 and 27.3 and 26.67
same,Cell cycle G0/G1,A2780 cells; LZ90 40,46.76 and 45.07
same,Cell cycle G2/M,A2780 cells; LZ90 40,35.5 and 29.25 and 33.56
same,Cell cycle S,A2780 cells; LZ90 40,23.4 and 20.94 and 19.12
same,Cell cycle G0/G1,A2780 cells; LZ90 60,32.3 and 44.46
same,Cell cycle G2/M,A2780 cells; LZ90 60,27.02 and 27.05
same,Cell cycle S,A2780 cells; LZ90 60,39.91 and 27.43
same,inhibition at 0.1 µM,[1],~40%
same,inhibition at 0.1 µM,[2],48.2%
same,"T-cell killing of tumor cells, comparison at the same concentration",[3],more effective than BMS202
